Results as given in patent US5286648A, “A84575 antibiotics” (Eli Lilly and Company, priority 1991, dated 1994).
≈ marks a conversion by molar mass, not a printed value.

Legend:
[1] = tested on: Streptococcus sp. (Group D); assay: In vitro activity vs. Streptococcus sp. (Group D) strains, agar dilution, Mueller-Hinton agar (Table 8); assay type: cell-based
[2] = tested on: Fusobacterium necrophorum; assay: Susceptibility of anaerobic bacterial isolates, agar dilution (Table 13); assay type: cell-based; details: 24 h
Bacteroides vulgatis = assay: as above; assay type: cell-based; details: 24 h
Streptococcus pyogenes [3] = assay: In vitro activity vs. Streptococcus pyogenes strains, agar dilution, Mueller-Hinton agar (Table 11)
Streptococcus aureus = assay: In vivo activity, administered subcutaneously to mice (Table 17); details: sc
Eubacterium aerofaciens = assay: Susceptibility of anaerobic bacterial isolates, agar dilution (Table 13); assay type: cell-based; details: Collinsella aerofaciens, 24 h
Propionibacterium acnes = assay: Susceptibility of Propionibacterium acnes isolates, agar dilution (Table 15); assay type: cell-based; details: Cutibacterium acnes, 24 h
Peptococcus variabilis = assay: Susceptibility of anaerobic cocci isolates, agar dilution (Table 16); assay type: cell-based; details: 24 h
[4] = tested on: Staphylococcus epidermidis; assay: In vitro activity vs. Staphylococcus epidermidis strains, agar dilution, Mueller-Hinton agar (Table 7); assay type: cell-based
S. sanguis = assay: In vitro activity vs. miscellaneous Streptococcus strains, agar dilution, Mueller-Hinton agar (Table 9)
[5] = tested on: Peptococcum asaccharolyticus; assay: Susceptibility of anaerobic bacterial isolates, agar dilution (Table 13); assay type: cell-based; details: 24 h
Streptococcus pyogenes [6] = assay: In vivo activity, administered subcutaneously to mice (Table 17); details: sc, subcutaneous, LD challenge 464
Peptococcus magnus = assay: Susceptibility of anaerobic cocci isolates, agar dilution (Table 16); assay type: cell-based; details: Finegoldia magna, 24 h
Clostridium perfringens = assay: microbe, parasite or virus in culture; assay type: cell-based; details: 24 h
Bacteroides fragilis = assay: Susceptibility of anaerobic bacterial isolates, agar dilution (Table 13); assay type: cell-based

## CN[C@H](CC(C)C)C(=O)N[C@H]1C(=O)N[C@@H](CC(N)=O)C(=O)N[C@H]2C(=O)N[C@H]3C(=O)N[C@H](C(=O)N[C@H](C(=O)O)c4cc(O)cc(O)c4-c4cc3ccc4O)[C@H](O)c3ccc(c(Cl)c3)Oc3cc2cc(c3O[C@@H]2O[C@H](CO)[C@@H](O)[C@H](O)[C@H]2O[C@H]2C[C@](C)(N)[C@H](O)[C@H](C)O2)Oc2ccc(cc2Cl)[C@H]1O [Vancomycin]
[1]; strain 282
  MIC: 1 µg/mL (≈ 0.69 µM)
[1]; strain 8043
  MIC: 1 µg/mL (≈ 0.69 µM)
[1]; strain 9901
  MIC: 2 µg/mL (≈ 1.38 µM)
[1]; strain 9913
  MIC: 1 µg/mL (≈ 0.69 µM)
[1]; strain 9933 Beta
  MIC: 4 µg/mL (≈ 2.76 µM)
[1]; strain 9960
  MIC: 4 µg/mL (≈ 2.76 µM)
[1]; strain 12253F
  MIC: 1 µg/mL (≈ 0.69 µM)
[1]; strain 22521
  MIC: 4 µg/mL (≈ 2.76 µM)
[1]; strain M10
  MIC: 4 µg/mL (≈ 2.76 µM)
[1]; strain M11
  MIC: 1 µg/mL (≈ 0.69 µM)
[1]; strain M12
  MIC: 4 µg/mL (≈ 2.76 µM)
[1]; strain M13
  MIC: 2 µg/mL (≈ 1.38 µM)
[1]; strain M20
  MIC: 1 µg/mL (≈ 0.69 µM)
[1]; strain M21
  MIC: 4 µg/mL (≈ 2.76 µM)
[1]; strain M28
  MIC: 4 µg/mL (≈ 2.76 µM)
[1]; strain M36
  MIC: 4 µg/mL (≈ 2.76 µM)
[1]; strain M38
  MIC: 1 µg/mL (≈ 0.69 µM)
[1]; strain Shrigley
  MIC: 2 µg/mL (≈ 1.38 µM)
[1]; strain Van Almen
  MIC: 4 µg/mL (≈ 2.76 µM)
[1]; strain Vietnam
  MIC: 2 µg/mL (≈ 1.38 µM)
[2]
  MIC: 1 µg/mL (≈ 0.69 µM)
Bacteroides vulgatis
  MIC: 8 µg/mL (≈ 5.52 µM)
Streptococcus pyogenes [3]; ATCC12344, strain ATCC 12344
  MIC: 1 µg/mL (≈ 0.69 µM)
Streptococcus pyogenes [3]; strain 9931
  MIC: 0.5 µg/mL (≈ 0.345 µM)
Streptococcus pyogenes [3]; strain 10389
  MIC: 0.5 µg/mL (≈ 0.345 µM)
Streptococcus pyogenes [3]; strain 12385
  MIC: 2 µg/mL (≈ 1.38 µM)
Streptococcus pyogenes [3]; strain 12961
  MIC: 1 µg/mL (≈ 0.69 µM)
Streptococcus pyogenes [3]; strain C203
  MIC: 1 µg/mL (≈ 0.69 µM)
Streptococcus pyogenes [3]; strain DS663-72
  MIC: 0.5 µg/mL (≈ 0.345 µM)
Streptococcus pyogenes [3]; strain HB93
  MIC: 1 µg/mL (≈ 0.69 µM)
Streptococcus pyogenes [3]; strain K-1
  MIC: 0.5 µg/mL (≈ 0.345 µM)
Streptococcus pyogenes [3]; strain K-2
  MIC: 0.5 µg/mL (≈ 0.345 µM)
Streptococcus pyogenes [3]; strain K-3
  MIC: 0.5 µg/mL (≈ 0.345 µM)
Streptococcus pyogenes [3]; strain K-4
  MIC: 1 µg/mL (≈ 0.69 µM)
Streptococcus pyogenes [3]; strain K-5
  MIC: 1 µg/mL (≈ 0.69 µM)
Streptococcus pyogenes [3]; strain K-6
  MIC: 0.5 µg/mL (≈ 0.345 µM)
Streptococcus aureus
  ED50: 0.83 mg/kg
Eubacterium aerofaciens
  MIC: 8 µg/mL (≈ 5.52 µM)
Propionibacterium acnes; strain #44, A84575: 3 different lots
  MIC: 0.5 µg/mL (≈ 0.345 µM)
Propionibacterium acnes; strain #103, A84575: 3 different lots
  MIC: 0.25 µg/mL (≈ 0.173 µM)
Propionibacterium acnes; strain #104, A84575: 3 different lots
  MIC: 0.5 µg/mL (≈ 0.345 µM)
Propionibacterium acnes; strain #105, A84575: 3 different lots
  MIC: 0.25 µg/mL (≈ 0.173 µM)
Propionibacterium acnes; strain #106, A84575: 3 different lots
  MIC: 0.5 µg/mL (≈ 0.345 µM)
Propionibacterium acnes; strain #107, A84575: 3 different lots
  MIC: 0.25 µg/mL (≈ 0.173 µM)
Propionibacterium acnes; strain #5170, A84575: 3 different lots
  MIC: 0.25 µg/mL (≈ 0.173 µM)
Propionibacterium acnes; strain #5176, A84575: 3 different lots
  MIC: 2 µg/mL (≈ 1.38 µM)
Propionibacterium acnes; strain #5187, A84575: 3 different lots
  MIC: 0.5 µg/mL (≈ 0.345 µM)
Propionibacterium acnes; strain #5191, A84575: 3 different lots
  MIC: 0.5 µg/mL (≈ 0.345 µM)
Propionibacterium acnes; strain #5197, A84575: 3 different lots
  MIC: 0.5 µg/mL (≈ 0.345 µM)
Propionibacterium acnes; strain #5226, A84575: 3 different lots
  MIC: 0.5 µg/mL (≈ 0.345 µM)
Propionibacterium acnes; strain #5227, A84575: 3 different lots
  MIC: 0.25 µg/mL (≈ 0.173 µM)
Propionibacterium acnes; strain #5228, A84575: 3 different lots
  MIC: 0.25 µg/mL (≈ 0.173 µM)
Propionibacterium acnes; strain #5229, A84575: 3 different lots
  MIC: 0.25 µg/mL (≈ 0.173 µM)
Propionibacterium acnes; strain #5246, A84575: 3 different lots
  MIC: 0.25 µg/mL (≈ 0.173 µM)
Propionibacterium acnes; strain #5260, A84575: 3 different lots
  MIC: 0.5 µg/mL (≈ 0.345 µM)
Propionibacterium acnes; strain #5292, A84575: 3 different lots
  MIC: 0.5 µg/mL (≈ 0.345 µM)
Propionibacterium acnes; strain #8586A, A84575: 3 different lots
  MIC: 0.5 µg/mL (≈ 0.345 µM)
Peptococcus variabilis
  MIC: 0.125 µg/mL (≈ 0.0863 µM)
[4]; strain 10-S-81, methicillin-resistant
  MIC: 1 µg/mL (≈ 0.69 µM)
[4]; strain 1202-18
  MIC: 2 µg/mL (≈ 1.38 µM)
[4]; strain 3078
  MIC: 1 µg/mL (≈ 0.69 µM)
[4]; strain 3079
  MIC: 2 µg/mL (≈ 1.38 µM)
[4]; strain 12477, methicillin-resistant
  MIC: 2 µg/mL (≈ 1.38 µM)
[4]; strain 48213
  MIC: 2 µg/mL (≈ 1.38 µM)
[4]; strain 48989
  MIC: 1 µg/mL (≈ 0.69 µM)
[4]; strain 49030
  MIC: 2 µg/mL (≈ 1.38 µM)
[4]; strain 49128, methicillin-resistant
  MIC: 1 µg/mL (≈ 0.69 µM)
[4]; strain 49536
  MIC: 1 µg/mL (≈ 0.69 µM)
[4]; strain 50766
  MIC: 1 µg/mL (≈ 0.69 µM)
[4]; strain S-3
  MIC: 2 µg/mL (≈ 1.38 µM)
[4]; strain ST-214, methicillin-resistant
  MIC: 0.5 µg/mL (≈ 0.345 µM)
[4]; strain ST-215, methicillin-resistant
  MIC: 2 µg/mL (≈ 1.38 µM)
[4]; strain ST-216
  MIC: 1 µg/mL (≈ 0.69 µM)
[4]; strain ST-217, methicillin-resistant
  MIC: 1 µg/mL (≈ 0.69 µM)
[4]; strain ST-220, methicillin-resistant
  MIC: 1 µg/mL (≈ 0.69 µM)
[4]; strain ST-222, methicillin-resistant
  MIC: 0.5 µg/mL (≈ 0.345 µM)
S. sanguis; strain I-SSI-547
  MIC: 0.5 µg/mL (≈ 0.345 µM)
S. sanguis; strain I-SSI-910
  MIC: 0.5 µg/mL (≈ 0.345 µM)
S. sanguis; strain II-SSII-895
  MIC: 0.5 µg/mL (≈ 0.345 µM)
S. sanguis; strain II-SSII-911
  MIC: 1 µg/mL (≈ 0.69 µM)
[5]
  MIC: 4 µg/mL (≈ 2.76 µM)
Streptococcus pyogenes [6]
  ED50: 0.72 mg/kg
Peptococcus magnus; strain 1401, A84575: 3 different lots
  MIC: 0.125 µg/mL (≈ 0.0863 µM)
Peptococcus magnus; strain 1421, A84575: 3 different lots
  MIC: 0.5 µg/mL (≈ 0.345 µM)
Peptococcus magnus; strain 29328, A84575: 3 different lots
  MIC: 1 µg/mL (≈ 0.69 µM)
Clostridium perfringens
  MIC: 1 µg/mL (≈ 0.69 µM)
Bacteroides fragilis; Bacteroides fragilis, 24 h
  MIC: 16 µg/mL (≈ 11 µM)
Bacteroides fragilis; strain 1877, 24 hr, A84575: 3 different lots
  MIC: 16 µg/mL (≈ 11 µM)
Bacteroides fragilis; strain 1936B, 24 hr, A84575: 3 different lots
  MIC: 16 µg/mL (≈ 11 µM)
